Test results taken from patent US11731964B2, “Benzamide antibacterial agents” (Purdue Research Foundation, priority 2018, dated 2023).
Converted amounts (≈) assume the structure as drawn. Read-outs that look alike come from different tables or passages of the source.

Tests used:
[1] = tested on: Escherichia coli BW25113; experiment: MIC against Gram-negative pathogens; format: cell-based
Protocol: (§1) Bacteria were cultured in cation-adjusted Mueller Hinton Broth (for strains in Tables 1 and 4) or Brain Heart Infusion broth (for Enterococcus faecium) or Tryptic Soy Broth (all other bacteria) in a 96-well plate at 37° C. for at least 20 hours. The MIC was classified as the lowest concentration where no visual growth of bacteria was observed. The minimum bactericidal concentration (MBC) was tested by spotting 4 μL from wells with no growth onto Tryptic Soy Agar (TSA) plates. Plates were incubated at 37° C. for at least 18 hours before recording the MBC.

[2] = tested on: Escherichia coli JW5503-1 (ΔtolC); experiment: MIC against Gram-negative pathogens (efflux pump knockout); format: cell-based
Protocol: as §1

[3] = tested on: MRSA ATCC 33592; experiment: MIC, broth microdilution; format: cell-based; conditions: Staphylococcus aureus
Protocol: as §1

[4] = tested on: E. faecalis; experiment: MIC (Table 5, strain not given); format: cell-based; conditions: Enterococcus faecalis; E. faecalis (Table 5)
Protocol: as §1

[5] = tested on: L. monocytogenes; experiment: MIC (Table 5, strain not given); format: cell-based; conditions: Listeria monocytogenes; L. monocytogenes (Table 5)
Protocol: as §1

[6] = tested on: S. aureus; experiment: MIC (Table 5, strain not given); format: cell-based; conditions: Staphylococcus aureus; S. aureus (Table 5)
Protocol: as §1

[7] = tested on: VRE; experiment: MIC (Table 5, strain not given); format: cell-based; conditions: Enterococcus; VRE (Table 5)
Protocol: as §1

[8] = tested on: Clostridium difficile ATCC 43255; experiment: Clostridium difficile inhibition analysis; format: cell-based; conditions: for Antibacterial activity: Table 7, C. difficile ATCC 43255
[9] = tested on: C. difficile NR-32883 (P2); experiment: Clostridium difficile inhibition analysis; format: cell-based; conditions: for Antibacterial activity: Table 7, C. difficile NR-32883 (P2)
[10] = tested on: C. difficile NR-32891 (P13); experiment: Clostridium difficile inhibition analysis; format: cell-based; conditions: for Antibacterial activity: Table 7, C. difficile NR-32891 (P13)
[11] = tested on: C. difficile NR-32895 (P19); experiment: Clostridium difficile inhibition analysis; format: cell-based; conditions: for Antibacterial activity: Table 7, C. difficile NR-32895 (P19)
[12] = tested on: C. difficile NR-32904 (P30); experiment: Clostridium difficile inhibition analysis; format: cell-based; conditions: for Antibacterial activity: Table 7, C. difficile NR-32904 (P30)
[13] = tested on: C. difficile NR-13432 (isolate 6); experiment: Clostridium difficile inhibition analysis; format: cell-based; conditions: for Antibacterial activity: Table 7, C. difficile NR-13432 (isolate 6)
[14] = tested on: C. difficile NR-13435 (isolate 9); experiment: Clostridium difficile inhibition analysis; format: cell-based; conditions: for Antibacterial activity: Table 7, C. difficile NR-13435 (isolate 9)
[15] = tested on: MRSA NRS119; experiment: MIC and MBC; format: cell-based, Staphylococcus aureus
Protocol: as §1

[16] = tested on: VISA NRS1; experiment: MIC and MBC; format: cell-based, S. aureus; conditions: Staphylococcus aureus
Protocol: as §1

[17] = tested on: VRSA VRS12; experiment: MIC and MBC; format: cell-based, S. aureus
Protocol: as §1

[18] = tested on: E. faecium ATCC; experiment: MIC and MBC; format: cell-based
Protocol: as §1

[19] = tested on: MRSA NRS123 (USA400); experiment: MIC and MBC; format: cell-based; conditions: Staphylococcus aureus
Protocol: as §1

[20] = tested on: MRSA NRS384 (USA300); experiment: MIC and MBC; format: cell-based; conditions: Staphylococcus aureus
Protocol: as §1

[21] = tested on: MRSA NRS385 (USA500); experiment: MIC and MBC; format: cell-based; conditions: Staphylococcus aureus
Protocol: as §1

[22] = tested on: MRSA NRS386 (USA700); experiment: MIC and MBC; format: cell-based; conditions: Staphylococcus aureus
Protocol: as §1

[23] = tested on: MRSA NRS387 (USA800); experiment: MIC and MBC; format: cell-based; conditions: Staphylococcus aureus
Protocol: as §1

[24] = tested on: MRSA USA300; experiment: Time-kill analysis; format: cell-based, Staphylococcus aureus
Protocol: The time-kill analysis was performed as previously described^29. […] Aliquots (100 μL) were collected from each treatment after 0, 2, 4, 8, 12, and 24 hours of incubation at 37° C. and subsequently serially diluted in phosphate-buffered saline (PBS). Bacteria were then transferred to TSA plates and incubated at 37° C. for 18-20 hours before viable CFU/mL was determined.

[25] = tested on: E. faecalis ATCC 29212; experiment: MIC, broth microdilution; format: cell-based; conditions: Enterococcus faecalis, ATCC29212
Protocol: as §1

[26] = tested on: L. monocytogenes ATCC 19115; experiment: MIC, broth microdilution; format: cell-based; conditions: Listeria monocytogenes, ATCC19115
Protocol: as §1

[27] = tested on: S. aureus ATCC 25923; experiment: MIC, broth microdilution; format: cell-based; conditions: Staphylococcus aureus, ATCC25923
Protocol: as §1

[28] = tested on: VRE (E. faecalis) ATCC 51575; experiment: MIC, broth microdilution; format: cell-based
Protocol: as §1

[29] = tested on: Clostridium difficile ATCC BAA 1801; experiment: Clostridium difficile inhibition analysis; format: cell-based
[30] = tested on: Clostridium difficile ATCC 9689; experiment: Clostridium difficile inhibition analysis; format: cell-based; conditions: Table 6, ATCC 9689
[31] = tested on: Acinetobacter baumannii ATCC 19606; experiment: MIC against Gram-negative pathogens; format: cell-based
Protocol: as §1

[32] = tested on: Klebsiella pneumoniae BAA-1706; experiment: MIC against Gram-negative pathogens; format: cell-based
Protocol: as §1

[33] = tested on: Pseudomonas aeruginosa ATCC 15442; experiment: MIC against Gram-negative pathogens; format: cell-based
Protocol: as §1

CC[C@H]1OC(=O)[C@H](C)[C@@H](O[C@H]2C[C@@](C)(OC)[C@@H](O)[C@H](C)O2)[C@H](C)[C@@H](O[C@@H]2O[C@H](C)C[C@H](N(C)C)[C@H]2O)[C@](C)(O)C[C@@H](C)C(=O)[C@H](C)[C@@H](O)[C@]1(C)O [Erythromycin]
MIC ([1]; Escherichia coli BW25113 (wild-type), read-out: MIC): 32 mg/L (≈ 43.6 µM) | MIC [2]: ≤ 1 mg/L

C[C@@H]1C[C@H](C)CN(S(=O)(=O)c2ccc(C(=O)Nc3nnc(-c4ccc(C(F)(F)F)cc4)o3)cc2)C1 [HSGN-94, 4-(((3S,5R)-3,5-dimethylpiperidin-1-yl)sulfonyl)-N-(5-(4-(trifluoromethyl)phenyl)-1,3,4-oxadiazol-2-yl)benzamide]
MIC ([3]; MRSA ATCC 33592, read-out: MIC): 0.25 mg/L (≈ 0.492 µM) | MIC [4]: 2 mg/L (≈ 3.93 µM) | MIC [5]: 0.5 mg/L (≈ 0.983 µM) | MIC [6]: 0.25 mg/L (≈ 0.492 µM) | MIC [7]: 1 mg/L (≈ 1.97 µM) | Antibacterial activity [8]: 0.06 | Antibacterial activity [9]: 0.06 | Antibacterial activity [10]: 0.125 | Antibacterial activity [11]: 0.06 | Antibacterial activity [12]: 0.125 | Antibacterial activity [13]: 0.06 | Antibacterial activity [14]: 0.06

CC(=O)NC[C@H]1CN(c2ccc(N3CCOCC3)c(F)c2)C(=O)O1 [Linezolid]
MIC ([15]; MRSA NRS119): inactive | MBC ([15]; Staphylococcus aureus, MRSA NRS119, read-out: MBC): 32 mg/L (≈ 94.9 µM) | MIC ([15]; Staphylococcus aureus, MRSA NRS119, read-out: MIC): 32 mg/L (≈ 94.9 µM) | MBC ([16]; VISA NRS1, read-out: MBC): 1 mg/L (≈ 2.96 µM) | MIC ([16]; VISA NRS1, read-out: MIC): ≤ 1 mg/L | MBC ([17]; Staphylococcus aureus, VRSA VRS12, read-out: MBC): 32 mg/L (≈ 94.9 µM) | MIC ([17]; Staphylococcus aureus, VRSA VRS12, read-out: MIC): ≤ 1 mg/L | MBC ([18]; Enterococcus faecium, E. faecium ATCC, read-out: MBC): 64 mg/L (≈ 190 µM) | MIC ([18]; Enterococcus faecium, E. faecium ATCC, read-out: MIC): ≤ 1 mg/L | MBC ([19]; MRSA NRS123 (USA400), read-out: MBC): 64 mg/L (≈ 190 µM) | MIC ([19]; MRSA NRS123 (USA400), read-out: MIC): ≤ 1 mg/L | MBC ([20]; MRSA NRS384 (USA300), read-out: MBC): 64 mg/L (≈ 190 µM) | MIC ([20]; MRSA NRS384 (USA300), read-out: MIC): ≤ 1 mg/L | MBC ([21]; MRSA NRS385 (USA500), read-out: MBC): 2 mg/L (≈ 5.93 µM) | MIC ([21]; MRSA NRS385 (USA500), read-out: MIC): ≤ 1 mg/L | MBC ([22]; MRSA NRS386 (USA700), read-out: MBC): 128 mg/L (≈ 379 µM) | MIC ([22]; MRSA NRS386 (USA700), read-out: MIC): ≤ 1 mg/L | MBC ([23]; MRSA NRS387 (USA800), read-out: MBC): 128 mg/L (≈ 379 µM) | MIC ([23]; MRSA NRS387 (USA800), read-out: MIC): ≤ 1 mg/L | MIC ([1]; Escherichia coli, BW25113): > 128 mg/L | MIC [2]: 8 mg/L (≈ 23.7 µM) | reduction in MRSA USA300 (time-kill) ([24]; 3×MIC, after a 24-hour incubation period): 2.16 log10 | in vitro effect against MRSA USA300 ([24]; time-kill analysis and MBC): bacteriostatic

CN[C@H](CC(C)C)C(=O)N[C@H]1C(=O)N[C@@H](CC(N)=O)C(=O)N[C@H]2C(=O)N[C@H]3C(=O)N[C@H](C(=O)N[C@H](C(=O)O)c4cc(O)cc(O)c4-c4cc3ccc4O)[C@H](O)c3ccc(c(Cl)c3)Oc3cc2cc(c3O[C@@H]2O[C@H](CO)[C@@H](O)[C@H](O)[C@H]2O[C@H]2C[C@](C)(N)[C@H](O)[C@H](C)O2)Oc2ccc(cc2Cl)[C@H]1O [Vancomycin, reference compound]
MIC [25]: 2 mg/L (≈ 1.38 µM) | MIC [26]: 1 mg/L (≈ 0.69 µM) | MIC [3]: 2 mg/L (≈ 1.38 µM) | MIC [27]: 2 mg/L (≈ 1.38 µM) | MIC [28]: > 128 mg/L | MBC ([15]; Staphylococcus aureus): ≤ 1 mg/L | MIC ([15]; Staphylococcus aureus): ≤ 1 mg/L | MBC [16]: 4 mg/L (≈ 2.76 µM) | MIC [16]: 4 mg/L (≈ 2.76 µM) | MBC ([17]; Staphylococcus aureus, VRSA): > 128 mg/L | MIC ([17]; Staphylococcus aureus, VRSA): > 128 mg/L | MIC ([17]; VRSA VRS12): >128 mg/L | MIC ([18]; E. faecium ATCC): >128 mg/L | MBC ([18]; Enterococcus faecium): > 128 mg/L | MIC ([18]; Enterococcus faecium): > 128 mg/L | MBC [19]: ≤ 1 mg/L | MIC [19]: ≤ 1 mg/L | MBC [20]: ≤ 1 mg/L | MIC [20]: ≤ 1 mg/L | MBC [21]: 2 mg/L (≈ 1.38 µM) | MIC [21]: ≤ 1 mg/L | MBC [22]: ≤ 1 mg/L | MIC [22]: ≤ 1 mg/L | MBC [23]: 2 mg/L (≈ 1.38 µM) | MIC [23]: 2 mg/L (≈ 1.38 µM) | Clostridium difficile inhibition ([29]; Table 6, ATCC BAA 1801): 1 | Antibacterial activity ([29]; Table 7, C. difficile ATCC BAA 1801): 1 | Clostridium difficile inhibition [30]: 0.5 | Clostridium difficile inhibition ([8]; Table 6, ATCC 43255): 1 | Antibacterial activity [8]: 1 | Clostridium difficile inhibition ([9]; Table 6, P2): 0.5 | Antibacterial activity [9]: 0.5 | Clostridium difficile inhibition ([10]; Table 6, P13): 0.5 | Antibacterial activity [10]: 0.5 | Clostridium difficile inhibition ([11]; Table 6, P19): 4 | Antibacterial activity [11]: 1 | Clostridium difficile inhibition ([12]; Table 6, P30): 0.5 | Antibacterial activity [12]: 1 | Clostridium difficile inhibition ([13]; Table 6, I6): 1 | Antibacterial activity [13]: 0.25 | Clostridium difficile inhibition ([14]; Table 6, I9): 2 | Antibacterial activity [14]: 1

Colistin [reference compound]
MIC [31]: ≤1 mg/L | MIC [32]: ≤1 mg/L | MIC [33]: ≤1 mg/L
